According to BigSolDB 2.1:

COC(=O)[C@@H](N)CC(C)C.Cl
solubility (mole fraction)
Details	283.15 K	288.15 K	293.15 K	298.15 K	303.15 K	308.15 K	313.15 K	318.15 K	323.15 K	328.15 K
in 1,4-dioxane	–	0.0539	0.0579	0.0621	0.0715	0.0799	0.0918	0.11	0.127	0.158
in 2-butanone	0.00114	0.00125	0.00141	0.00158	0.00186	0.00238	0.00297	0.00388	0.00524	–
in acetone	0.00343	0.00389	0.00451	0.00562	0.00661	0.00806	0.01	0.0129	0.0172	–
in acetonitrile	0.00109	0.00154	0.00205	0.00313	0.00401	0.0051	0.00776	0.011	0.0162	–
in dimethyl carbonate	0.000287	0.000319	0.00038	0.000478	0.000629	0.000924	0.00127	0.00167	0.00213	–
in ethyl acetate	0.000226	0.000237	0.000277	0.000342	0.000421	0.000593	0.000729	0.000892	0.00124	–
in isopropyl acetate	0.000136	0.000152	0.000178	0.000219	0.000246	0.00029	0.000358	0.000429	0.000561	–
in methyl acetate	0.000388	0.000472	0.000629	0.000834	0.00105	0.00138	0.0019	0.00244	0.00347	–
in n-butanol	0.0885	0.0916	0.0983	0.109	0.123	0.139	0.155	0.171	0.196	–
in n-hexane	0.000296	0.000331	0.000371	0.000433	0.000505	0.00063	0.000782	0.000983	0.0012	–
in n-pentanol	0.0571	0.062	0.0696	0.0787	0.0917	0.104	0.121	0.137	0.156	–
in n-propyl acetate	0.00123	0.00129	0.00145	0.00189	0.00234	0.00292	0.0036	0.00455	0.00541	–
